Legend:
Trypanosoma cruzi [1] = assay: Antitrypanosomal activity against Trypanosoma cruzi (MHOM/CH/00/Tulahuen C2, lacZ) amastigotes infected in HFF-1 cells assessed as reduction in parasite growth incubated for 120 hrs by CPRG/Igepal substrate based photometric method; type: functional, organism-based; details: MHOM/CH/00/Tulahuen C2, HFF-1, 120 h
[2] = Cytotoxicity against human HFF-1 cells assessed as reduction in cell viability incubated for 120 hrs by MTS assay; type: cell-based
Leishmania infantum = assay: Antileishmanial activity against Leishmania infantum MHOM/MA/67/ITMAP-263 infected in THP1 cells assessed as reduction in parasite growth incubated for 120 hrs by Giemsa staining based inverted microscopic analysis; type: functional, organism-based; details: MHOM/MA/67/ITMAP-263, THP-1, 120 h
[3] = Cytotoxicity against human HepG2 cells assessed as reduction in cell viability incubated for 120 hrs by MTS assay; type: cell-based
Trypanosoma cruzi [4] = assay: Antitrypanosomal activity against Trypanosoma cruzi (MHOM/CH/00/Tulahuen C2, lacZ) amastigotes infected in HFF-1 cells assessed as reduction in parasite growth at 300 uM incubated for 120 hrs by CPRG/Igepal substrate based photometric method relative to control; type: functional; details: MHOM/CH/00/Tulahuen C2, HFF-1
Trypanosoma cruzi [5] = assay: Antitrypanosomal activity against Trypanosoma cruzi (MHOM/CH/00/Tulahuen C2, lacZ) amastigotes infected in HFF-1 cells assessed as reduction in parasite growth at 150 uM incubated for 120 hrs by CPRG/Igepal substrate based photometric method relative to control; type: functional; details: MHOM/CH/00/Tulahuen C2, HFF-1
Trypanosoma cruzi [6] = assay: Antitrypanosomal activity against Trypanosoma cruzi (MHOM/CH/00/Tulahuen C2, lacZ) amastigotes infected in HFF-1 cells assessed as reduction in parasite growth at 75 uM incubated for 120 hrs by CPRG/Igepal substrate based photometric method relative to control; type: functional; details: MHOM/CH/00/Tulahuen C2, HFF-1

SMILES	IC50 (Trypanosoma cruzi [1]) [µM]	CC50 at 120 h [2] [µM]	IC50 (Leishmania infantum) [µM]	CC50 at 120 h [3] [µM]	inhibition at 300 µM (Trypanosoma cruzi [4]) [%]	inhibition at 150 µM (Trypanosoma cruzi [5]) [%]	inhibition at 75 µM (Trypanosoma cruzi [6]) [%]
C=C(c1nc(-c2ccccc2)no1)C(O)c1ccccn1 (stereo not given)	> 100	30.1	17.9	58.6			
C=C(c1nc(-c2ccc([N+](=O)[O-])cc2)no1)C(O)c1cc(OC)c(OC)c(OC)c1 (stereo not given)	> 64	> 64	52.6	57.3			
C=C(c1nc(-c2ccc(Cl)cc2)no1)C1(O)C(=O)N(CC)c2ccccc21 (stereo not given)	23.6	> 64	4.01	13.8			
C=C(c1nc(-c2ccccc2)no1)C1(O)C(=O)N(CC)c2ccc(C)cc21 (stereo not given)	16.6	> 64	6.01	26.7			
C=Cc1nc(-c2ccc([N+](=O)[O-])cc2)no1	> 64	> 64	12.2	26.9			
C=C(c1nc(-c2ccc(OC)cc2)no1)C(O)c1ccccc1[N+](=O)[O-] (stereo not given)	> 100	42.2	2.38	10.6			
C=C(c1nc(-c2ccccc2)no1)C1(O)C(=O)N(c2ccccc2)c2ccccc21 (stereo not given)	16.2	27.9	8.17	14.1			
O=C(Cn1ccnc1[N+](=O)[O-])NCc1ccccc1 [BENZNIDAZOLE]	5.6				100	92.8	85.5
CCN1C(=O)C2(OCC=C2c2nc(-c3ccccc3)no2)c2cccc(Br)c21 (stereo not given)	26.7	34.2	6.41	58.4			
C=C(c1nc(-c2ccc(OC)cc2)no1)C1(O)C(=O)N(CC)c2ccc(OC)cc21 (stereo not given)	> 64	54.5	22	13.6			
C=C(c1nc(-c2ccc(OC)cc2)no1)C1(O)C(=O)N(CC)c2ccc([N+](=O)[O-])cc21 (stereo not given)	> 64	> 64	25.9	13.6			
C=C(c1nc(-c2ccccc2)no1)C1(O)C(=O)N(CC)c2ccc(OC)cc21 (stereo not given)	> 100	> 64	7.29	13.5			
C=C(c1nc(-c2ccccc2)no1)C(O)CCCC (stereo not given)	19.3	> 64	35.9	> 64			
C=C(c1nc(-c2ccccc2)no1)C(O)c1cc(F)cc(F)c1 (stereo not given)	> 100	> 64	5.12	7.92			
C=Cc1nc(-c2ccc(OC)cc2)no1	15.6	> 64	25.2	58			
C=C(c1nc(-c2cc(OC)c(OC)c(OC)c2)no1)C(O)c1ccccc1 (stereo not given)	> 100	> 64	12	27.4			
C=C(c1nc(-c2ccc([N+](=O)[O-])cc2)no1)C1(O)C(=O)N(CC)c2ccccc21 (stereo not given)			3.33	10.9			
CCCCCCCCCCCCCCCCOP(=O)([O-])OCC[N+](C)(C)C [MILTEFOSINE]			2.3				
C=C(c1nc(-c2ccccc2)no1)C(O)c1ccc(OC)cc1 (stereo not given)	81.3	> 64	18	33.6			
C=C(c1nc(-c2ccc([N+](=O)[O-])cc2)no1)C1(O)C(=O)N(CC)c2ccc([N+](=O)[O-])cc21 (stereo not given)	> 64	> 64	7.36	7.12			
C=C(c1nc(-c2ccc(OC)cc2)no1)C1(O)C(=O)N(CC)c2ccccc21 (stereo not given)	> 64	> 64	2.85	26.9			
C=C(c1nc(-c2ccccc2)no1)C(O)c1ccccc1 (stereo not given)	8.2	> 64	9.81	27.2			
C=C(c1nc(-c2ccc(Cl)cc2)no1)C1(O)C(=O)N(CC)c2ccc([N+](=O)[O-])cc21 (stereo not given)	> 64	> 64	6.48	10.4			
C=C(c1nc(-c2ccccc2)no1)C(O)c1cccc(F)c1 (stereo not given)	> 100	> 64	7.29	14.1			
C=Cc1nc(-c2ccccc2)no1	37.2	> 64	> 64	> 64			
C=C(c1nc(-c2ccccc2)no1)C1(O)C(=O)N(CC)c2c(Br)cccc21 (stereo not given)	> 100	21.5	10.4	22.8			
C=C(c1nc(-c2ccccc2)no1)C1(O)C(=O)N(CC)c2c(Cl)cc(Cl)cc21 (stereo not given)	> 100	> 64	4.1	6.77			

SMILES	IC50 (Trypanosoma cruzi [1]) [µM]	CC50 at 120 h [2] [µM]	IC50 (Leishmania infantum) [µM]	CC50 at 120 h [3] [µM]	inhibition at 300 µM (Trypanosoma cruzi [4]) [%]	inhibition at 150 µM (Trypanosoma cruzi [5]) [%]	inhibition at 75 µM (Trypanosoma cruzi [6]) [%]
C=C(c1nc(-c2ccccc2)no1)C(O)c1ccc(Cl)cc1 (stereo not given)	57.5	> 64	6.92	10.1			
CCN1C(=O)C2(OCC=C2c2nc(-c3ccccc3)no2)c2ccccc21 (stereo not given)	12.1	20.6	11.7	60.4			
C=C(c1nc(-c2ccccc2)no1)C1(O)C(=O)N(CC)c2ccc(F)cc21 (stereo not given)	14.8	> 64	3.51	9.37			
C=CCOC1(C(=C)c2nc(-c3ccccc3)no2)C(=O)N(CC)c2ccccc21 (stereo not given)	12	> 64	10.7	> 64			
C=C(c1nc(-c2ccccc2)no1)C1(O)C(=O)N(C)c2ccccc21 (stereo not given)	> 64	53.8	51.4	6.73			
C=C(c1nc(-c2ccccc2)no1)C1(O)C(=O)N(CC)c2c(Cl)cccc21 (stereo not given)	> 100	62.1	4.85	13.5			
C=C(c1nc(-c2ccccc2)no1)C(O)c1ccc(Cl)c(F)c1 (stereo not given)	27	> 64	18.9	27.8			
C=C(c1nc(-c2ccccc2)no1)C(O)c1ccc([N+](=O)[O-])cc1 (stereo not given)	7.8	> 64	10.4	14.2			
C=C(c1nc(-c2ccccc2)no1)C(O)c1ccccc1Cl (stereo not given)	25.7	> 64	17.6	59.2			
C=C(c1nc(-c2ccc(OC)cc2)no1)C(O)c1ccccc1 (stereo not given)	> 100	55.1	11.5	39.6			
C=C(c1nc(-c2ccccc2)no1)C1(O)C(=O)N(CC)c2ccc(OC(F)(F)F)cc21 (stereo not given)	> 100	> 64	11.1	10.4			
C=C(c1nc(-c2ccc(OC)cc2)no1)C(O)c1ccc(C#N)cc1 (stereo not given)	> 100	> 64	3.89	13.6			
C=C(c1nc(-c2ccc([N+](=O)[O-])cc2)no1)C(O)c1nccs1 (stereo not given)	37.1	> 64	> 64	> 64			
C=C(c1nc(-c2ccccc2)no1)C1(O)C(=O)N(Cc2ccccc2)c2ccccc21 (stereo not given)	10.6	> 64	5.65	19.2			
C=C(c1nc(-c2ccccc2)no1)C(O)/C=C/c1ccccc1 (stereo not given)	55.7	> 64	20.6	30.3			
C=C(c1nc(-c2ccccc2)no1)C(O)c1ccc(Br)cc1 (stereo not given)	36.5	> 64	43.9	41.1			
C=C(c1nc(-c2ccccc2)no1)C1(O)C(=O)N(CC)c2ccc(Cl)cc21 (stereo not given)	> 100	> 64	2.5	6.78			
C=C(c1nc(-c2ccc(Cl)cc2)no1)C1(O)C(=O)N(CC)c2ccc(OC)cc21 (stereo not given)	28.4	40.7	5.09	11.5			
C=C(c1nc(-c2ccccc2)no1)C(O)c1ccc(C#N)cc1 (stereo not given)	> 100	> 64	21.7	32			
C=C(c1nc(-c2ccccc2)no1)C(O)c1ccc(S(C)(=O)=O)cc1 (stereo not given)	64.4	> 64	8.47	28.7			
C=C(c1nc(-c2ccccc2)no1)C(O)c1ccccc1[N+](=O)[O-] (stereo not given)	58.4	> 64	10.3	14			
C=C(c1nc(-c2ccc([N+](=O)[O-])cc2)no1)C1(O)C(=O)N(CC)c2ccc(OC)cc21 (stereo not given)	> 64	43.6	12	5.83			
C=C(c1nc(-c2ccc([N+](=O)[O-])cc2)no1)C(O)c1ccccc1 (stereo not given)	> 64	> 64	37.5	27.1			
C=C(c1nc(-c2ccc(OC)cc2)no1)C(O)c1ccccc1C(F)(F)F (stereo not given)	8.8	> 64	8.55	> 64			
C=C(c1nc(-c2ccccc2)no1)C(O)c1cc2c(cc1Br)OCO2 (stereo not given)	17.6	> 64	8.93	58.5			
COc1cccc2c1C(=O)c1c(O)c3c(c(O)c1C2=O)C[C@@](O)(C(=O)CO)C[C@@H]3O[C@H]1C[C@H](N)[C@H](O)[C@H](C)O1 [DOXORUBICIN]		0.53		0.77			
